Measurements reported in patent US20240390386A1, “CDK8/19 INHIBITORS FOR PREVENTING DRUG RESISTANCE” (University of South Carolina, priority 2021, published 2024).
Like-named read-outs stand apart in the source and are kept apart here.

Key:
MDA-MB-468 xenografts = details: for effect on tumor growth: SNX631 350 ppm medicated food
PEN027 PDX tumors = details: for effect on event-free survival (KM): 38 days of treatment, event: tumor 2,000 mm^3 or euthanasia; for effect on tumor volume: first 10 days of treatment, everolimus 2 mg/kg daily gavage, SNX631-6 500 ppm food
panel of 468 kinases = details: 2000 nM; cited from earlier work
[1] = everolimus 2 mg/kg daily gavage

Compound	development of in vivo resistance to everolimus (MDA-MB-468 xenografts; 150 days of study, tumor volumes and KM event-free survival (event: 500 mm^3))	effect on tumor growth (MDA-MB-468 xenografts; [1])	duration of full suppression of xenograft growth before resistance (MDA-MB-468 xenografts; [1])	development of resistance (PEN061 PDX TNBC model; continued up to 158 days)	effect on event-free survival (KM) (PEN027 PDX tumors)	effect on tumor volume (PEN027 PDX tumors)	toxicity based on body weight changes (PEN027 PDX tumors; mouse, in vivo)	toxicity based on average mouse body weights (PEN061 PDX TNBC model; SNX631-6 350 ppm food, everolimus 3 mg/kg daily gavage)	effect on tumor growth (PEN061 PDX TNBC model; after 63 days of treatment, SNX631-6 350 ppm food, everolimus 3 mg/kg daily gavage)	toxicity based on body weight changes (PEN027 PDX tumors; surviving mice)	tolerability based on mouse body weights (MDA-MB-468 xenografts; SNX631 350 ppm food, everolimus 2 mg/kg daily gavage)	S(10) S-score (panel of 468 kinases)	S(35) S-score (panel of 468 kinases)
CO[C@H]1C[C@@H]2CC[C@@H](C)[C@@](O)(O2)C(=O)C(=O)N2CCCC[C@H]2C(=O)O[C@H]([C@H](C)C[C@@H]2CC[C@@H](OCCO)[C@H](OC)C2)CC(=O)[C@H](C)/C=C(\C)[C@@H](O)[C@@H](OC)C(=O)[C@H](C)C[C@H](C)/C=C/C=C/C=C/1C [everolimus, reference compound]	all the tumors developed everolimus resistance	fully suppressed xenograft growth	~50 days of treatment	many of the tumors treated with everolimus alone developed resistance	strong effect	significantly inhibited tumor volume	lack of significant toxicity						
[2H]C([2H])([2H])N(C(=O)c1ccc(N2CCCN(c3ccnc4sc(C(N)=O)c(N)c34)CC2)cc1)C([2H])([2H])[2H] [SNX631-6, 3-amino-4-(4-(4-(bis(methyl-d3)carbamoyl)phenyl)-1,4-diazepan-1-yl)thieno[2,3-b]pyridine-2-carboxamide]					only a moderate effect on survival	significantly inhibited tumor volume		lack of significant toxicity	strongly inhibited tumor growth	lack of significant toxicity			
CN(C)C(=O)c1ccc(N2CCCN(c3ccnc4sc(C(N)=O)c(N)c34)CC2)cc1 [SNX631, 3-amino-4-(4-(4 (dimethylcarbamoyl)phenyl)-1,4-diazepan-1-yl)thieno[2,3-b]pyridine-2-carboxamide]		modest effect on tumor growth									very well tolerated	< 0.004	less than 0.02
